“And” between values parts separate entries of the source, which are not always exact repeats. Identical values can stand only once.
Details: Fluid (supercritical or subcritical phases); for mass density: Buoyancy - hydrostatic balance with magnetic suspension - one sinker; for viscosity: Vibrating wire viscometry

CCCC [butane]
Details | mass density | viscosity
298.11 K, 162.81 kPa | 4.0157 kg/m3 | 0.007353 mPa·s
298.11 K, 162.82 kPa | 4.016 kg/m3 | 0.007354 mPa·s
298.12 K, 142.16 kPa | 3.4823 kg/m3 | 0.007359 mPa·s
298.12 K, 221.35 kPa | 5.5716 kg/m3 | 0.007333 mPa·s
298.12 K, 221.39 kPa | 5.5728 kg/m3 | 0.007334 mPa·s
298.13 K, 123.43 kPa | 3.0049 kg/m3 | 0.007365 mPa·s
298.13 K, 123.44 kPa | 3.0052 kg/m3 | 0.007363 mPa·s
298.13 K, 142.17 kPa | 3.4826 kg/m3 | 0.007359 mPa·s
298.14 K, 61.79 kPa | 1.4756 kg/m3 | 0.007376 mPa·s
298.14 K, 61.8 kPa | 1.4758 kg/m3 | 0.007378 mPa·s
298.14 K, 82.37 kPa | 1.9794 kg/m3 | 0.007375 mPa·s
298.14 K, 82.38 kPa | 1.9797 kg/m3 | 0.007372 mPa·s
298.14 K, 102.9 kPa | 2.4887 kg/m3 | 0.007369 mPa·s
298.14 K, 102.91 kPa | 2.4889 kg/m3 | 0.00737 mPa·s
298.14 K, 175.29 kPa | 4.3414 kg/m3 and 4.3415 kg/m3 | 0.007347 mPa·s and 0.007346 mPa·s
298.14 K, 196.75 kPa | 4.9091 kg/m3 | 0.007342 mPa·s
298.14 K, 196.77 kPa | 4.9096 kg/m3 | 0.007341 mPa·s
298.15 K, 57.18 kPa | 1.3635 kg/m3 and 1.3636 kg/m3 | 0.007377 mPa·s and 0.007378 mPa·s
322.98 K, 450.39 kPa | 11.024 kg/m3 | 0.007953 mPa·s
323 K, 450.69 kPa | 11.032 kg/m3 | 0.007951 mPa·s
323.01 K, 450.89 kPa | 11.037 kg/m3 | 0.007953 mPa·s
323.06 K, 392.1 kPa | 9.426 kg/m3 | 0.007958 mPa·s
323.08 K, 392.5 kPa | 9.4391 kg/m3 | 0.007954 mPa·s
323.09 K, 392.9 kPa | 9.4492 kg/m3 | 0.00796 mPa·s
323.11 K, 380.74 kPa | 9.1236 kg/m3 | 0.007958 mPa·s
323.11 K, 380.78 kPa | 9.1236 kg/m3 | 0.007958 mPa·s
323.12 K, 330.12 kPa | 7.8092 kg/m3 | 0.007967 mPa·s
323.12 K, 330.36 kPa | 7.8164 kg/m3 | 0.007967 mPa·s
323.12 K, 380.76 kPa | 9.1272 kg/m3 | 0.007958 mPa·s
323.13 K, 261.18 kPa | 6.0223 kg/m3 | 0.00797 mPa·s
323.13 K, 261.21 kPa | 6.023 kg/m3 | 0.007973 mPa·s
323.13 K, 301.54 kPa | 7.0807 kg/m3 | 0.00797 mPa·s
323.13 K, 303.39 kPa | 7.1241 kg/m3 | 0.007967 mPa·s
323.13 K, 305.32 kPa | 7.1762 kg/m3 | 0.00797 mPa·s
323.13 K, 330.63 kPa | 7.8215 kg/m3 | 0.007965 mPa·s
323.14 K, 58.2 kPa | 1.2744 kg/m3 and 1.2766 kg/m3 | 0.007994 mPa·s and 0.007988 mPa·s
323.14 K, 58.21 kPa | 1.2766 kg/m3 | 0.00799 mPa·s
323.14 K, 66.38 kPa | 1.4575 kg/m3 and 1.4567 kg/m3 | 0.007991 mPa·s and 0.007994 mPa·s
323.14 K, 66.39 kPa | 1.4553 kg/m3 | 0.007994 mPa·s
323.14 K, 90.51 kPa | 1.9979 kg/m3 | 0.007987 mPa·s
323.14 K, 90.52 kPa | 1.9986 kg/m3 | 0.00799 mPa·s
323.14 K, 112.93 kPa | 2.5057 kg/m3 | 0.00799 mPa·s
323.14 K, 112.94 kPa | 2.5035 kg/m3 | 0.007991 mPa·s
323.14 K, 112.96 kPa | 2.5057 kg/m3 | 0.00799 mPa·s
323.14 K, 132.43 kPa | 2.9506 kg/m3 | 0.007991 mPa·s
323.14 K, 132.44 kPa | 2.9492 kg/m3 | 0.007989 mPa·s
323.14 K, 132.46 kPa | 2.9499 kg/m3 | 0.007989 mPa·s
323.14 K, 184.24 kPa | 4.1645 kg/m3 | 0.007979 mPa·s
323.14 K, 215.63 kPa | 4.9096 kg/m3 | 0.007976 mPa·s
323.14 K, 215.65 kPa | 4.9111 kg/m3 | 0.007976 mPa·s
323.14 K, 215.87 kPa | 4.9169 kg/m3 | 0.007974 mPa·s
323.14 K, 261.28 kPa | 6.0252 kg/m3 | 0.007968 mPa·s
323.15 K, 150.03 kPa | 3.3622 kg/m3 | 0.007982 mPa·s
323.15 K, 150.04 kPa | 3.3622 kg/m3 | 0.007982 mPa·s
323.15 K, 184.35 kPa | 4.1652 kg/m3 | 0.00798 mPa·s
323.15 K, 184.36 kPa | 4.1667 kg/m3 | 0.007979 mPa·s
348.03 K, 813.85 kPa | 19.576 kg/m3 | 0.008652 mPa·s
348.03 K, 813.99 kPa | 19.581 kg/m3 | 0.008648 mPa·s
348.03 K, 814.13 kPa | 19.586 kg/m3 | 0.008649 mPa·s
348.12 K, 677.52 kPa | 15.682 kg/m3 | 0.008631 mPa·s
348.12 K, 677.82 kPa | 15.691 kg/m3 | 0.008631 mPa·s
348.13 K, 760.25 kPa | 17.999 kg/m3 | 0.00864 mPa·s
348.13 K, 760.34 kPa | 18.002 kg/m3 | 0.008637 mPa·s
348.14 K, 93.82 kPa | 1.9124 kg/m3 | 0.008599 mPa·s
348.14 K, 93.83 kPa | 1.9131 kg/m3 | 0.008597 mPa·s
348.14 K, 293.19 kPa | 6.2173 kg/m3 | 0.008602 mPa·s
348.14 K, 293.73 kPa | 6.2296 kg/m3 | 0.008602 mPa·s
348.14 K, 618.24 kPa | 14.097 kg/m3 | 0.008621 mPa·s
348.14 K, 618.34 kPa | 14.099 kg/m3 | 0.008628 mPa·s
348.15 K, 63.28 kPa | 1.2845 kg/m3 | 0.008588 mPa·s
348.15 K, 63.3 kPa | 1.286 kg/m3 | –
